From patent publication US10960084B2, “Modulation of fluid intake” (California Institute of Technology, priority 2018, dated 2021)

Legend:
[1] = tested on: hM4Di-expressing MnPO^GLP1r neurons; test: Slice current-clamp recording, CNO on hM4Di-expressing MnPO^GLP1r neurons; assay type: cell-based, mice; conditions: CNO application
From the text: (§1) Procedures for preparation of acute brain slices and recordings with optogenetic stimulations were similar to those described previously^[10],[36]. After decapitation, the brain was removed and immersed in ice-cold solution. Coronal slices ([…]) were cut using a vibratome (VT-1200s, Leica) and moved into HEPES-holding solution (NaCl 92, KCl 2.5, NaH2PO4 1.2, NaHCO3 30, HEPES 20, glucose 25, Na-ascorbate 5, Thiourea 2, Na14 pyruvate 3, MgSO4 2, CaCl2 2, pH 7.35). The slices were allowed to recover at 33° C. for 30 min and then held at room temperature ([…]) until use.
(§2) While recording, slices were perfused continuously (˜2 mL/min) with artificial cerebrospinal fluid (ACSF-NaCl 124, KCl2.5, NaH2PO4 1.2, NaHCO3 24, glucose 25, MgSO4 1, CaCl2 2) at 25° C. Neurons were visualized and targeted using an upright IR19 DIC microscope (BX51WI, Olympus). […] In order to confirm the PSCs recorded were GABAergic, picrotoxin (150 μM) was applied through the bath in part of the experiments. […] CNO (˜6 μM) was applied by a puff (30 s) from another glass pipette placed ˜50 μm from the recorded cell.

[2] = tested on: mCherry control animals; test: mCherry controls for acute inhibition (CNO without hM4Di); assay type: in vivo, mice
Description: Long-term access assays: Optogenetic Testing—For FIGS. 1L-N and FIGS. 7L-O, satiated mice were given ad libitum access to water for 20 min with photostimulation. Photostimulation was delivered for 1-s followed by 3-s intervals throughout the behavioral sessions. For FIGS. 2J-M and FIGS. 11C-E, mice were given access to water for 20 min after 24 h water-restriction, and photostimulation was delivered for the first 10 min. For feeding assays (FIGS. 2J-M), animals were single-housed in Biodaq cages after 24 h food-restriction, and chow intake was measured for 20 min with or without light stimulation. For acute inhibition experiments, mice were given access to 150 mM NaCl (FIGS. 5D-E, FIGS. 13E-F), water (FIGS. 1L-N, FIGS. 7L-O, FIGS. 13A-D, FIGS. 13G-H) for 20-30 min after 24 h water-restriction or 300 mM sucrose (FIGS. 1L-N, FIGS. 7L-O) after food-restriction. For all acute inhibition experiments, CNO was injected at 10 mg/kg body weight, 30 min prior to the start of the behavior session. For acute activation experiments, CNO was injected at 1 mg/kg body weight (FIGS. 12L-M), 30 min prior to the start of the behavior session. […] The weight of the cup was measured before and after the behavior session. […] The entire session was recorded using a camera at 30 fps and ingestion episodes were manually annotated.

[3] = tested on: SFO^nNOS neurons; test: Acute activation of SFO^nNOS neurons by hM3Dq-mCherry with CNO; assay type: in vivo, mice; conditions: hM3Dq-mCherry in SFO^nNOS; intraperitoneal CNO 1 mg/kg
Description: Long-term access assays: Optogenetic Testing—For FIGS. 1L-N and FIGS. 7L-O, satiated mice were given ad libitum access to water for 20 min with photostimulation. Photostimulation was delivered for 1-s followed by 3-s intervals throughout the behavioral sessions. For FIGS. 2J-M and FIGS. 11C-E, mice were given access to water for 20 min after 24 h water-restriction, and photostimulation was delivered for the first 10 min. For feeding assays (FIGS. 2J-M), animals were single-housed in Biodaq cages after 24 h food-restriction, and chow intake was measured for 20 min with or without light stimulation. […] The weight of the cup was measured before and after the behavior session. […] The entire session was recorded using a camera at 30 fps and ingestion episodes were manually annotated.
We measured bulk fluorescence signals using fiber photometry as previously described^[26]. […] The fluorescence signal was then focused onto a femtowatt photoreceiver (Newport, Model 2151). […] The licks from the lickometer were simultaneously recorded as real-time TTL signals to the RP2.1. Fluorescence changes were analyzed using custom MATLAB (MathWorks) code as described previously^[26]. […] The resultant ΔF/F was calculated as (raw 490 nm signal-fitted 405 nm signal)/(fitted 405 nm signal). For brief access tests, the Area Under Curve (ΣΔFduring) was quantified by integrating the fluorescence signals during the bout. […]

[4] = tested on: hM4Di-expressing MnPO^nNOS neurons; test: Slice current-clamp recording, CNO on hM4Di-expressing MnPO^nNOS neurons; assay type: cell-based, mice; conditions: brain slices
From the text: as §1, §2

C[N+]1([O-])CCN(C2=Nc3cc(Cl)ccc3Nc3ccccc32)CC1 [CNO, clozapine-N-oxide]
neurons in which firing is inhibited [1]: 6/7 | intake after water or food-restriction ([2]; AAV-DIO-mCherry in the MnPO of nNOS-Cre animals, 5-s brief access): showed no reduction | saline or water drinking, CNO vs vehicle ([2]; mCherry controls in MnPO^GLP1r, water deprived, 30 min): No significant difference | water drinking [3]: induce water drinking | neurons in which firing is inhibited ([4]; CNO application): 6/6 | firing of hM4Di-expressing MnPO^nNOS neurons ([4]; brief application of CNO): strongly suppressed the firing
